Data reported in US20100314318A1, “HALOGENATED AMIDE BIOCIDAL COMPOUNDS AND METHODS FOR TREATING WATER SYSTEMS AT NEAR NEUTRAL TO HIGH PH” (priority 2009, published 2010).

Key:
[1] = test system: bacteria in Cooling Tower water; assay: Efficacy in cooling tower water sample (about pH 8.3), serial dilution count; assay type: cell-based
[2] = test system: bacteria isolated from Cooling Tower water; assay: Efficacy in sterile artificial Cooling Tower water (approx. pH 8.5); assay type: cell-based; conditions: 30° C.
[3] = test system: bacteria isolated from field; assay: Efficacy in semi-synthetic metal working fluid; assay type: cell-based; conditions: room temperature, MWF
[4] = test system: Pseudomonas aeruginosa ATCC 10145; assay: Bactericidal efficacy in synthetic salts water pH 8.5; assay type: cell-based; conditions: 37° C.
Experimental: A sterile synthetic salts water is prepared and inoculated with Pseudomonas aeruginosa ATCC 10145 at about 10^7 CFU/mL. The synthetic water is prepared to contain (in 1 liter deionized water) the following: CaCl2, 0.2203 g; MgSO4, 0.1847 g; and NaHCO3, 0.2033 g. The final pH of the synthetic cooling water is adjusted to 8.5. Aliquots of the cell suspension are then treated with biocides at selected dosage levels. The same contaminated water sample without biocide is used as control. After incubating at 37° C. for different time intervals, numbers of surviving bacteria are enumerated using a serial dilution method. After incubating for 24 hr, all cell suspensions are reinoculated with Pseudomonas aeruginosa ATCC 10145 at 10^6 CFU/mL. The efficacy results for […]

[5] = going from pH 6 to pH 8.9; cited from earlier work
bacterial consortium = assay: Preservation of calcium carbonate slurry Hydrocarb 90 (pH 8.7); conditions: 24-hr contact
[6] = Stability against hydrolysis in buffered dilute solutions, HPLC

## N#CC(Br)(Br)C(N)=O [DBNPA, 2,2-Dibromo-3-nitrilopropionamide]
[1]; 12.5 ppm active, 1 hr
  Bacterial log10 reduction after biocide addition: 5.3 log10
[1]; 12.5 ppm active, 48 hrs, re-inoculated
  Bacterial log10 reduction after biocide addition: 1.5 log10
[1]; 12.5 ppm active, 72 hrs, re-inoculated
  Bacterial log10 reduction after biocide addition: 0.7 log10
[1]; 12.5 ppm active, 96 hrs, re-inoculated
  Bacterial log10 reduction after biocide addition: 0.3 log10
[1]; 25 ppm active, 1 hr
  Bacterial log10 reduction after biocide addition: 5.2 log10
[1]; 25 ppm active, 3 hr
  Bacterial log10 reduction after biocide addition: >=5.7 log10
[1]; 25 ppm active, 24 hrs
  Bacterial log10 reduction after biocide addition: >=6.3 log10
[1]; 25 ppm active, 48 hrs, re-inoculated
  Bacterial log10 reduction after biocide addition: 4.2 log10
[1]; 25 ppm active, 72 hrs, re-inoculated
  Bacterial log10 reduction after biocide addition: 1.0 log10
[1]; 25 ppm active, 96 hrs, re-inoculated
  Bacterial log10 reduction after biocide addition: 0.7 log10
[1]; 50 ppm active, 1 hr
  Bacterial log10 reduction after biocide addition: >=5.3 log10
[1]; 50 ppm active, 3 hr
  Bacterial log10 reduction after biocide addition: >=5.7 log10
[1]; 50 ppm active, 24 hrs
  Bacterial log10 reduction after biocide addition: >=6.3 log10
[1]; 50 ppm active, 48 hrs, re-inoculated
  Bacterial log10 reduction after biocide addition: 6.1 log10
[1]; 50 ppm active, 72 hrs, re-inoculated
  Bacterial log10 reduction after biocide addition: 1.0 log10
[1]; 50 ppm active, 96 hrs, re-inoculated
  Bacterial log10 reduction after biocide addition: 0.8 log10
[2]; 1 h
  Minimum biocide dosage (ppm, active) needed for at least 3 log10 bacterial reduction: 8.0 ppm
[2]; 3 h
  Minimum biocide dosage (ppm, active) needed for at least 3 log10 bacterial reduction: 8.0 ppm
[2]; 24 h
  Minimum biocide dosage (ppm, active) needed for at least 3 log10 bacterial reduction: 11.0 ppm
[2]; 48 h, reinoculated
  Minimum biocide dosage (ppm, active) needed for at least 3 log10 bacterial reduction: 15.0 ppm
[2]; 72 h, reinoculated
  Minimum biocide dosage (ppm, active) needed for at least 3 log10 bacterial reduction: 15.0 ppm
[2]; 96 h, reinoculated
  Minimum biocide dosage (ppm, active) needed for at least 3 log10 bacterial reduction: 21.0 ppm
[3]; 2 h
  Minimum dosage (ppm, active) required for at least 3 log10 reduction in bacterial counts: 42 ppm
[3]; 4 h
  Minimum dosage (ppm, active) required for at least 3 log10 reduction in bacterial counts: 32 ppm
[3]; 24 h
  Minimum dosage (ppm, active) required for at least 3 log10 reduction in bacterial counts: 42 ppm
[3]; 48 h
  Minimum dosage (ppm, active) required for at least 3 log10 reduction in bacterial counts: 55 ppm
[3]; 72 h
  Minimum dosage (ppm, active) required for at least 3 log10 reduction in bacterial counts: 55 ppm
[3]; 96 h
  Minimum dosage (ppm, active) required for at least 3 log10 reduction in bacterial counts: 55 ppm
[4]; 1 hr, pH 8.5
  Dosage required for 3 log10 bacterial reduction (ppm, active): 2.9 ppm
[4]; 3 hr, pH 8.5
  Dosage required for 3 log10 bacterial reduction (ppm, active): 2.9 ppm
[4]; 24 hr, pH 8.5
  Dosage required for 3 log10 bacterial reduction (ppm, active): 4.4 ppm
[4]; 48 hr, pH 8.5, reinoculated after 24 hr
  Dosage required for 3 log10 bacterial reduction (ppm, active): 50.0 ppm
[5]
  factor by which rate of disappearance increases: about 450
Bacterial consortium; 5 ppm
  change in populations of bacteria (FIG. 6): decrease relatively little
Bacterial consortium; 10 ppm
  decrease in numbers of bacteria (FIG. 6): approximately 0.5 orders of magnitude
[6]; pH 6.9, T = 30 C., 0 hours
  level of DBMAL or DBNPA remaining (HPLC): 3991
[6]; pH 6.9, T = 30 C., 2 hours
  level of DBMAL or DBNPA remaining (HPLC): 4155
[6]; pH 6.9, T = 30 C., 24 hours
  level of DBMAL or DBNPA remaining (HPLC): 2557
[6]; pH 6.9, T = 30 C., 48 hours
  level of DBMAL or DBNPA remaining (HPLC): 1361
[6]; pH 6.9, T = 30 C., 72 hours
  level of DBMAL or DBNPA remaining (HPLC): 918
[6]; pH 6.9, T = 30 C., 96 hours
  level of DBMAL or DBNPA remaining (HPLC): 658
[6]; pH 8, T = −1 C., 0 hours
  level of DBMAL or DBNPA remaining (HPLC): 4068
[6]; pH 8, T = −1 C., 2 hours
  level of DBMAL or DBNPA remaining (HPLC): 3998
[6]; pH 8, T = −1 C., 24 hours
  level of DBMAL or DBNPA remaining (HPLC): 3506
[6]; pH 8, T = −1 C., 48 hours
  level of DBMAL or DBNPA remaining (HPLC): 3578
[6]; pH 8, T = −1 C., 72 hours
  level of DBMAL or DBNPA remaining (HPLC): 3149
[6]; pH 8, T = −1 C., 96 hours
  level of DBMAL or DBNPA remaining (HPLC): 3070
[6]; pH 9, T = −1 C., 0 hours
  level of DBMAL or DBNPA remaining (HPLC): 3842
[6]; pH 9, T = −1 C., 2 hours
  level of DBMAL or DBNPA remaining (HPLC): 2818
[6]; pH 9, T = −1 C., 24 hours
  level of DBMAL or DBNPA remaining (HPLC): 1256
[6]; pH 9, T = −1 C., 48 hours
  level of DBMAL or DBNPA remaining (HPLC): 659
[6]; pH 9, T = −1 C., 72 hours
  level of DBMAL or DBNPA remaining (HPLC): 363
[6]; pH 9, T = −1 C., 96 hours
  level of DBMAL or DBNPA remaining (HPLC): 239
